Data taken from patent publication US5536723A, “S-nitroso derivatives of hydrazinoacetic acids, 1-[(acylthio and (mercapto)-1-oxoalkyl]-1,2,34-Tetrahydroquinoline-2-carboxylic acids and alanyl prolines and isoquinolines” (Brigham & Women's Hospital, priority 1994, dated 1996).
Peptide text beside a SMILES is read from it.

Tests used:
[1] = system: bovine femoral artery, contraction to angiotensin I; experiment: contraction of the bovine femoral artery to angiotensin I
Method: The data are expressed as a percentage of the maximal response to norepinephrine (10^-6 M) and are shown as mean ±SEM in each group (n=7).
(§1) Blood Vessel Preparation. Bovine coronary or femoral arteries were obtained from an abattoir immediately after sacrifice of two- to four-week-old calves. Immediately after removal, the vessel was placed in ice-cold physiologic salt solution (PSS) containing 118.3 mM NaCl, 4.7 mM KCl, 2.5 mM CaCl2, 1.2 mM MgSO4, 1.2 mM KH2 PO4, 25.0 mM NaHCO3, 11.1 mM glucose, and 0.026 mM calcium disodium (ethylenedinitrilo)-tetraacetate. The vessels were then cleaned of adventitial tissue and cut into rings of approximately 5 mm lengths. When called for by the protocol, endothelium was removed from a ring by gently rubbing the luminal surface with a watchmaker's forceps. Vascular rings with intact endothelium were then suspended in organ chambers containing 25 ml of PSS at 37° aerated with 95% O2 -5% CO2. The rings were connected to force transducers (Grass FT03C, Quincy, Mass.) and changes in isometric force recorded continuously (Grass Polygraph Model 79B) over a period of 90 minutes. The optimal length-tension relationship was determined for each ring by observing the response to 10^-6 M norepinephrine after increments in tension of 0.5 gm. The functional integrity of the endothelium was assessed by contracting the vessel with 10^-6 M norepinephrine and then observing the response to 3×10^-7 M acetylcholine chloride.

bovine femoral artery = experiment: relaxation of isolated bovine femoral artery rings contracted with norepinephrine; conditions: norepinephrine-contracted; FIG. 2
Method: FIG. 2 depicts a graph showing the effect of S-nitrosocaptopril on the contraction of bovine femoral arteries to norepinephrine.
as §1
Vascular ring segments with intact endothelium were […] contracted with a concentration of norepinephrine inducing a half-maximal response. After a stable contraction had been achieved, the tissue was exposed to increasing concentrations of S-nitrosocaptopril in cumulative half-log increments. […] The apparent IC50 is approximately 1 μM.

[2] = arterial pressure in the anesthetized rabbit; format: in vivo; conditions: 1 mM solution infused in an ear vein, 0.02 to 2.2 ml/min
Method: A 1 mM solution of S-nitrosocaptopril was infused in an ear vein of the rabbit at rates from 0.02 to 2.2 ml/min and the phasic and mean arterial pressure recorded in the femoral artery.

platelets = experiment: platelet aggregation in PRP induced by ADP; format: cell-based, human; conditions: 11 μM ADP
Method: FIG. 7 depicts a graph showing the effect of S-nitrosocaptopril on platelet aggregation. Platelets in PRP were incubated with S-nitrosocaptopril over a range of concentrations for three minutes, after which ADP was added to a final concentration of 11 uM. The maximal rate of aggregation was measured and plotted as a percentage of that observed in the absence of S-nitrosocaptopril. Each point represents the mean ±SEM of five experiments each performed in duplicate.
Platelets. Volunteers who had not ingested acetylsalicylic acid for at least ten days provided venous blood within one hour of use. […] Platelet counts were determined using a Coulter counter (Model ZM; Coulter Electronics, Hialeah, Fla.) and adjusted with platelet-poor plasma (PPP) to 1.5×10^8 platelets/ml prior to use.
Platelet Aggregation. Platelet aggregation was monitored using a standard nephelometric technique (Born and Cross, J. Physiol (London) 168:178-195 (1963)) in which PRP was incubated at 37° with a final concentration of 11 μM ADP and stirred at 900 rpm in a Payton dual channel aggregometer (Payton Associates, Inc., Buffalo, N.Y.). Aggregation was quantitated by measuring either the maximal rate of change of light transmittance or the extent of change of light transmittance. […]

[3] = system: bovine femoral artery, response to bradykinin; experiment: response of the bovine femoral artery to bradykinin
Method: as §1
In the bovine femoral artery contracted with a concentration of norepinephrine inducing a half-maximal response, bradykinin induced a biphasic response.

[4] = system: guanylate cyclase in arterial smooth muscle; conditions: Horowitz 1983; cited from earlier work
platelet aggregation = conditions: Loscalzo 1985; cited from earlier work
[5] = system: soluble guanylate cyclase; conditions: Ignarro 1980; cited from earlier work

With C[C@H](CS)C(=O)N1CCCC1C(=O)O (stereo in doubt) [captopril, D-3-mercapto-2-methylpropanoyl-L-proline] the “inhibition of contractions to angiotensin I, S-nitrosocaptopril versus captopril (in words)” value [1] was “equally inhibited contractions to angiotensin I”, the “relaxation response (in words)” value (bovine femoral artery) was “no relaxation response” and the “effect on blood pressure (in words)” value [2] was “no effect on blood pressure”. The “inhibitory effect on platelet aggregation (in words)” value (platelets) was “no inhibitory effect” and the “effect on the response to bradykinin (in words)” value ([3]; 10^-6 M) was “Neither response to bradykinin was affected”.
For O=C1O[C@H]([C@@H](O)CO)C(O)=C1O [Ascorbate], the “activation of guanylate cyclase in arterial smooth muscle (in words)” value (“activation of guanylate cyclase” for short) [4] is given as “totally ineffective”.
In the case of O=N[O-].[Na+] [NaNO2], the “effect on blood pressure (in words)” value [2] is reported as “no effect on blood pressure”.
For CC(=O)N[C@@H](CSN=O)C(=O)O [S-nitroso-N-acetyl cysteine], the “inhibition of platelet aggregation (in words)” value (platelet aggregation) is given as “extremely potent inhibitor of platelet aggregation”.
For NC(CSN=O)C(=O)O (stereo not shown) [S-nitrosothiol of cysteine], the “activation of soluble guanylate cyclase (in words)” value [5] is given as “capable of activating soluble guanylate cyclase” and the “activation of guanylate cyclase” value [4] is given as “potent activators of guanylate cyclase”.
For N[C@@H](CCC(=O)N[C@@H](CSN=O)C(=O)NCC(=O)O)C(=O)O [S-nitrosothiol of glutathione], the “activation of soluble guanylate cyclase (in words)” value [5] is given as “capable of activating soluble guanylate cyclase” and the “activation of guanylate cyclase” value [4] is given as “potent activators of guanylate cyclase”.
In the case of CC(C)(SN=O)C(N)C(=O)O (stereo not shown) [S-nitrosothiol of penicillamine], the “activation of soluble guanylate cyclase (in words)” value [5] is given as “capable of activating soluble guanylate cyclase” and the “activation of guanylate cyclase” value [4] is given as “potent activators of guanylate cyclase”.
For NC(N)=NCCC[C@H](NC(=O)[C@H](Cc1ccccc1)NC(=O)[C@@H]1CCCN1C(=O)[C@H](CO)NC(=O)[C@H](Cc1ccccc1)NC(=O)CNC(=O)[C@@H]1CCCN1C(=O)[C@@H]1CCCN1C(=O)[C@@H](N)CCCN=C(N)N)C(=O)O [bradykinin] (H-RPPGFSPFR-OH), the “response to bradykinin at higher concentrations (in words)” value ([3]; norepinephrine-contracted, higher concentrations) was “increase in tension which was not affected by removal of the endothelium” and the “response to bradykinin at lower concentrations (in words)” value ([3]; norepinephrine-contracted, lower concentrations) was “relaxations that were abolished by removal of the endothelium”.
